Reference: patent US7294630B2, “Piperazinyl piperidine tachykinin antagonists” (SmithKline Beecham Corporation, priority 2000, dated 2007)
Structures can show the parent of a compound that is named as a salt.

Columns and labels:
[1] = molecular target: T1, recombinant human NK1 receptors expressed in Chinese Hamster Ovary (CHO) cell membranes (Homo sapiens, UniProt P25103); test: NK1-receptor binding affinity, displacement of [3H]-substance P; settings: average of at least two determinations, [3H]substance P displacement; for Ki: read-out: pki (negative logarithm of the inhibition constant Ki) (converted)
T1 construct: expressed in transfected cells; host or cells: Chinese Hamster Ovary (CHO) cells, membrane preparation
Experimental: CHO cell membranes were prepared by using a modification of the method described by Dam T and Quirion R (Peptides, 7:855-864, 1986). Thus ligand binding was performed in 0.4 ml of 50 mM HEPES, pH 7.4, containing 3 mM MnCl2, 0.02% BSA, 0.5 nM [^3H]Substance P (30÷56 Ci/mmol, Amersham), a final membrane concentration of 25 μg of protein/ml, and the test compounds. The incubation proceeded at room temperature for 40 min.
The affinity of the compound of the invention for NK1 receptor was determined using the NK1-receptor binding affinity method measuring in vitro by the compounds' ability to displace [3H]—substance P (SP) from recombinant human NK1 receptors expressed in Chinese Hamster Ovary (CHO) cell membranes. The affinity values are expressed as negative logarithm of the inhibition constant (Ki) of displacer ligands (pKi).

NK1 receptor = molecular target: T2, NK1 receptor (Meriones unguiculatus, UniProt Q5DUB1); test: gerbil foot tapping model (NK1 agonist icv); format: in vivo; settings: read-out: ED50 (dose required to inhibit by 50% the tapping induced by the NK1 agonist), oral administration, four hours before NK1 agonist 3 pmol icv
T2 construct: from tissue; host or cells: living gerbil, central nervous system (NK1 agonist infused into the cerebral ventricles)
Excerpt: The action of the compounds of the invention at the NK1 receptor may be determined by using conventional tests.
The ability of the compounds of the invention to penetrate the central nervous system and to bind at the nk1 receptor may be determined using the gerbill foot tapping model as described by Rupniak & Williams, Eur. Jour. of Pharmacol., 1994.
The compound was orally administered and four hours later an NK1 agonist (e.g. delta-Aminovaler^6[Pro^9,Me-Leu^10]-substance P (7-11)) (3 pmol in 5 μicv) was infused directly in the cerebral ventricules of the animals. The duration of hind foot tapping induced by the NK1 agonist (e.g. delta-Aminovalery^6[Pro^9,Me-Leu^10]-substance P (7-11)) was recorded continuously for 3 min using a stopclock. […] Alternatively the compounds may be administered subcutaneously or intraperitoneally.

T2 sequence (Q5DUB1 whole entry, the tested form may be a part): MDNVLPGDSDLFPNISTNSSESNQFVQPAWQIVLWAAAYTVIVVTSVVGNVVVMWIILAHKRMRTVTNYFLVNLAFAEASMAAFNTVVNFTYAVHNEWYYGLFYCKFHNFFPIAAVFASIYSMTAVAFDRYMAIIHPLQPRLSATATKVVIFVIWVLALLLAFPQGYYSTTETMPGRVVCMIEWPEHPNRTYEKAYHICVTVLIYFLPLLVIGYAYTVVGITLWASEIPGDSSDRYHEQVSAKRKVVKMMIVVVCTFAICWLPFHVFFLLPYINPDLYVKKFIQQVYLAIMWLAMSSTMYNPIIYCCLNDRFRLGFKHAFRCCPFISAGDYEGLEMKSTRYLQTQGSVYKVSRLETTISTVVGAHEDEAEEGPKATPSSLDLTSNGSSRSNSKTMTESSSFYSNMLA
T1 sequence (P25103 whole entry): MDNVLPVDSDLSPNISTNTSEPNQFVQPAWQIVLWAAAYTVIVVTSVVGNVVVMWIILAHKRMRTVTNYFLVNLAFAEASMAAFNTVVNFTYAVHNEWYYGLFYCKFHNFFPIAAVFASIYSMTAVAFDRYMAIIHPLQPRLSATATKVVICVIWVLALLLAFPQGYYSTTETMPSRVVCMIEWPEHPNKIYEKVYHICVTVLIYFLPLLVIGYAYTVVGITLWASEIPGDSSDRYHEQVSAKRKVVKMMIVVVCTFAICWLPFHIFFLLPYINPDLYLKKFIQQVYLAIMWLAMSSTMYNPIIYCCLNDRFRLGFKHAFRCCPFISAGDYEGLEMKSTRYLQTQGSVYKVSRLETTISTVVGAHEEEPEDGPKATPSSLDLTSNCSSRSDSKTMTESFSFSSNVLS

Molecule	Ki [1] [nM]	other results
CC(=O)N1CCN([C@H]2CCN(C(=O)N(C)Cc3cc(C(F)(F)F)cc(C(F)(F)F)c3)[C@@H](c3ccc(F)cc3C)C2)CC1.Cl [Example 7b, 4-(S)-(4-Acetyl-piperazin-1-yl)-2-(R)-(4-fluoro-2-methyl-phenyl)-piperidine-1-carboxylic acid, (3,5-bis-trifluoromethyl-benzyl)-methylamide hydrochloride]	0.0741	ED50 (NK1 receptor): 0.19 mg/kg
Cc1cc(F)ccc1[C@H]1C[C@@H](N2CCN(C(=O)N(C)C)CC2)CCN1C(=O)N(C)Cc1cc(C(F)(F)F)cc(C(F)(F)F)c1 [Example 15, 4-(S)-[1-[(3,5-Bis-trifluoromethyl-benzyl)-methyl-carbamoyl]-2-(R)-(4-fluoro-2-methyl-phenyl)-piperidin-4-yl]-piperazine-1-carboxylic acid, dimethylamide hydrochloride]	0.0457	–
CC(=O)N1CCN([C@H]2CCN(C(=O)N(C)[C@H](C)c3cc(C(F)(F)F)cc(C(F)(F)F)c3)[C@@H](c3ccc(F)cc3C)C2)CC1.Cl [Example 3, 4-(S)-(4-Acetyl-piperazin-1-yl)-2-(R)-(4-fluoro-2-methyl-phenyl)-piperidine-1-carboxylic acid, [1-(R)-(3,5-bis-trifluoromethyl-phenyl)-ethyl]-methylamide hydrochloride]	–	ED50 (NK1 receptor): 0.05 mg/kg
Cc1cc(F)ccc1[C@H]1C[C@@H](N2CCN(C(=O)C(C)C)CC2)CCN1C(=O)N(C)[C@H](C)c1cc(C(F)(F)F)cc(C(F)(F)F)c1 [Example 14, 4-(S)-[4-(2-Methyl-propanoyl)-piperazin-1-yl]-2-(R)-(4-fluoro-2-methyl-phenyl)-piperidine-1-carboxylic acid, [1-(R)-(3,5-bis-trifluoromethyl-phenyl)-ethyl]-methylamide hydrochloride]	0.1	–
Cc1cc(F)ccc1[C@H]1C[C@@H](N2CCN(C(=O)C3CC3)CC2)CCN1C(=O)N(C)[C@H](C)c1cc(C(F)(F)F)cc(C(F)(F)F)c1.Cl [Example 12, 4-(S)-(4-Cyclopropanoyl-piperazin-1-yl)-2-(R)-(4-fluoro-2-methyl-phenyl)-piperidine-1-carboxylic acid, [1-(R)-(3,5-bis-trifluoromethyl-phenyl)-ethyl]-methylamide hydrochloride]	0.123	ED50 (NK1 receptor): 0.27 mg/kg
Cc1cc(F)ccc1[C@H]1CC(N2CCN(C)CC2)CCN1C(=O)N(C)Cc1cc(C(F)(F)F)cc(C(F)(F)F)c1.Cl.Cl (mixture of isomers) [Example 10, 2-(R)-(4-Fluoro-2-methyl-phenyl)-4-(R,S)-(4-methyl-piperazin-1-yl)-piperidine-1-carboxylic acid, (3,5-bis-trifluoromethyl-benzyl)-methylamide dihydrochloride]	0.115	melting point: 208 to 209 °C
CC(=O)N1CCN([C@@H]2CCN(C(=O)N(C)Cc3cc(C(F)(F)F)cc(C(F)(F)F)c3)[C@@H](c3ccc(F)cc3C)C2)CC1 [Example 7a, 4-(R)-(4-Acetyl-piperazin-1-yl)-2-(R)-(4-fluoro-2-methyl-phenyl)-piperidine-1-carboxylic acid, (3,5-bis-trifluoromethyl-benzyl)-methylamide hydrochloride]	0.708	–
2-(R)-(4-Fluoro-2-methyl-phenyl)-4-(S)-piperazin-1-yl-piperidine-1-carboxylic acid, [1-(R)-(3,5-bis-trifluoromethyl-phenyl)-ethyl]-methylamide hydrochloride [Example 9]	–	pki (negative logarithm of the inhibition constant Ki) [1]: 9.93
CC(=O)N1CCN([C@H]2CCN(C(=O)N(C)[C@H](C)c3cc(C(F)(F)F)cc(C(F)(F)F)c3)[C@@H](c3ccc(F)cc3)C2)CC1 [Example 19, 4-(S)-(4-Acetyl-piperazin-1-yl)-2-(R)-(4-fluoro-phenyl)-piperidine-1-carboxylic acid, [1-(R)-(3,5-bis-trifluoromethyl-phenyl)-ethyl]-methylamide hydrochloride]	0.417	–
CNC(=O)N1CCN([C@H]2CCN(C(=O)N(C)Cc3cc(C(F)(F)F)cc(C(F)(F)F)c3)[C@@H](c3ccc(F)cc3C)C2)CC1 [Example 16, 4-(S)-[1-[(3,5-Bis-trifluoromethyl-benzyl)-methyl-carbamoyl]-2-(R)-(4-fluoro-2-methyl-phenyl)-piperidin-4-yl]-1-carboxylic acid, methylamide hydrochloride]	0.0437	–
Cc1cc(F)ccc1[C@H]1CC(N2CCN(C)CC2)CCN1C(=O)N(C)[C@H](C)c1cc(C(F)(F)F)cc(C(F)(F)F)c1 (mixture of isomers) [Example 8, 2-(R)-(4-Fluoro-2-methyl-phenyl)-4-(R,S)-(4-methyl-piperazin-1-yl)-piperidine-1-carboxylic acid, [1-(R)-(3,5-bis-trifluoromethyl-phenyl)-ethyl]-methylamide hydrochloride]	0.209	–
